The first assay concerns the target T1, 11-beta-hydroxysteroid dehydrogenase type 2 (Mus musculus, UniProt P51661).
T1 sequence (P51661 whole entry): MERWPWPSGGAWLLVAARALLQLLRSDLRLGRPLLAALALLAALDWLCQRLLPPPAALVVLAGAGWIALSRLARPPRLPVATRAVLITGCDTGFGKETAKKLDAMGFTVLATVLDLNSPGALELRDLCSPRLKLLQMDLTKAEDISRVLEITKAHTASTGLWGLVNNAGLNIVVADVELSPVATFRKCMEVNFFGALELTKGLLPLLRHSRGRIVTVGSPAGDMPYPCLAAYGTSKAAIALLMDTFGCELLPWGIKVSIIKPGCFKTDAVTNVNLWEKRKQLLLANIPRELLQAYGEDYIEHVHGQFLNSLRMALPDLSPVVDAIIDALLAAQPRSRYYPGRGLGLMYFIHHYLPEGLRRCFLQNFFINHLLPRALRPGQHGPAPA
The assay can be described thus: Inhibition of full-length mouse 11beta-HSD2 expressed in HEK293 microsomal fraction […] after 1 hr by scintillation proximity assay.
Conditions: not given
A general note: SPA uses beads or plates that emit light when radiolabelled molecules are held near them.
Sequence of 11-beta-hydroxysteroid dehydrogenase 1 (Mus musculus) (P50172 whole entry, looked up): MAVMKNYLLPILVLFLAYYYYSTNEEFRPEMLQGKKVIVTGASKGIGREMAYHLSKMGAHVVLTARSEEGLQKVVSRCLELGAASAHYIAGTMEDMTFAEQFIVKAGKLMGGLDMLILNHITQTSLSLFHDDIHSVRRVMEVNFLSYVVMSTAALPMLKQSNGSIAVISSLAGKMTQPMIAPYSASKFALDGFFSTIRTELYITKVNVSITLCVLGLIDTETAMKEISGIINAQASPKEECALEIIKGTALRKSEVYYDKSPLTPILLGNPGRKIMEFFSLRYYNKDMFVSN
`CC(=O)O[C@H]1CC[C@]2(C)[C@H]3C[C@@H](O)[C@@H]4[C@@H](O)CC[C@@]4(C)[C@]3(C)CC[C@H]2C1(C)C` registered an IC50 greater than 10 µM.

Compound `CC1(C)[C@@H](O)CC[C@]2(C)[C@H]3C[C@@H](O)[C@@H]4CCC[C@@]4(C)[C@]3(C)CC[C@@H]12` came in with an IC50 greater than 100 µM.

Consider `CC(=O)[C@]1(O)CC[C@]2(C)[C@@H]1[C@H](O)C[C@@H]1[C@@]3(C)CC[C@H](O)C(C)(C)[C@@H]3CC[C@]12C`, for which the IC50 was greater than 10 µM.

In turn, `CC(=O)O[C@H]1CC[C@]2(C)[C@H]3C[C@@H](O)[C@@H]4[C@@H](C(C)=O)CC[C@@]4(C)[C@]3(C)CC[C@H]2C1(C)C` gave an IC50 greater than 10 µM.

For the compound `CC1(C)[C@@H](O)CC[C@]2(C)[C@H]3C[C@@H](O)[C@@H]4[C@@H](CO)CC[C@@]4(C)[C@]3(C)CC[C@@H]12`, the IC50 is greater than 10 µM.

For another assay, the target named is T2, 11-beta-hydroxysteroid dehydrogenase 1 (Homo sapiens, UniProt P28845). The assay can be described thus: Inhibition of full-length human 11beta-HSD1 expressed in HEK293 microsomal fraction using [3H]cortisone as substrate after 2 hr by scintillation proximity assay.
Conditions: not given
Target sequence in this assay (P28845 whole entry): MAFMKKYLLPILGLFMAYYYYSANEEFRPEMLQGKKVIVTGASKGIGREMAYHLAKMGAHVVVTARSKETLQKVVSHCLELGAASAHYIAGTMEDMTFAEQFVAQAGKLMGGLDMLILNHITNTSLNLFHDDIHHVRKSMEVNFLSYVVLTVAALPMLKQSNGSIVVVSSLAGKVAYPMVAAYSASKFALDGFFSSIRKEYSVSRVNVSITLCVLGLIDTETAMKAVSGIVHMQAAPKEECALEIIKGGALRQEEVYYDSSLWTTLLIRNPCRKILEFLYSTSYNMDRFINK
Compound `CC(=O)O[C@H]1CC[C@]2(C)[C@H]3C[C@@H](O)[C@@H]4[C@@H](O)CC[C@@]4(C)[C@]3(C)CC[C@H]2C1(C)C` returned an IC50 of 0.994 µM.

The compound `CC1(C)[C@@H](O)CC[C@]2(C)[C@H]3CC(=O)C4=CCC[C@@]4(C)[C@]3(C)CC[C@@H]12` came in with an IC50 of 1.05 µM.

With `CC(=O)O[C@H]1CC[C@]2(C)[C@H]3C[C@@H](OC(C)=O)[C@@H]4[C@@H](C(=O)CCCC(C)C)CC[C@@]4(C)[C@]3(C)CC[C@H]2C1(C)C`, the IC50 amounted to 0.101 µM.

As for `CCC(=O)CC[C@]1(C)C(=O)[C@H](O)C[C@@H]2[C@@]3(C)CC[C@H](OC(C)=O)C(C)(C)[C@@H]3CC[C@]21C`, 0.729 µM corresponded to half-maximal inhibition (IC50).

For `CC(=O)O[C@H]1CC[C@]2(C)[C@H]3C[C@@H](OC(C)=O)[C@@H]4[C@@H](C(C)=O)CC[C@@]4(C)[C@]3(C)CC[C@H]2C1(C)C`, the IC50 is 0.244 µM.

With `CC(=O)O[C@H]1CC[C@]2(C)[C@H]3C[C@@H](OC(C)=O)[C@@H]4[C@@H](C(=O)CO)CC[C@@]4(C)[C@]3(C)CC[C@H]2C1(C)C`, the IC50 was 0.488 µM.

The target of a further assay is T2, 11-beta-hydroxysteroid dehydrogenase 1. The assay can be described thus: Inhibition of human N-terminal His-tagged 11beta-HSD1 expressed in Escherichia coli using cortisol as substrate by fluorescence-based assay.
Conditions: not given
Target sequence in this assay (P28845 whole entry): as above
For `CC1=CC[C@@]2(CC1O)[C@@H](C(=O)O)CC[C@H]2C(C)C` (some centres undefined), half-maximal inhibition (IC50) was put at 0.013 µM.

The next assay concerns the target T3, 11-beta-hydroxysteroid dehydrogenase type 2 (Homo sapiens, UniProt P80365).
T3 sequence (P80365 whole entry): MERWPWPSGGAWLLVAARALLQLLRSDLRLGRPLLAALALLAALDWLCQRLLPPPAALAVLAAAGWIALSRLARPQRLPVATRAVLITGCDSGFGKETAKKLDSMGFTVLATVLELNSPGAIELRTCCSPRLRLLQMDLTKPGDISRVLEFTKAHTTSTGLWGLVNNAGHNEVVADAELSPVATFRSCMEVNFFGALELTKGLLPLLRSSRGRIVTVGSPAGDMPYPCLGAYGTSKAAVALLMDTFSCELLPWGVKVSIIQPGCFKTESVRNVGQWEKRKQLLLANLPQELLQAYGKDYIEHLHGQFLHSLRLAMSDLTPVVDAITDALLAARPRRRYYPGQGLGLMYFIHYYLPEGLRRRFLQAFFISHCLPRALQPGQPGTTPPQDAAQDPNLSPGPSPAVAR
The assay can be described thus: Inhibition of full-length human 11beta-HSD2 expressed in HEK293 microsomal fraction using [3H]cortisone as substrate after 2 hr by scintillation proximity assay. It counts as cell-based.
Conditions: not given
`CC(=O)O[C@H]1CC[C@]2(C)[C@H]3C[C@@H](O)[C@@H]4[C@@H](O)CC[C@@]4(C)[C@]3(C)CC[C@H]2C1(C)C` gave an IC50 greater than 10 µM.

`CC1(C)[C@@H](O)CC[C@]2(C)[C@H]3CC(=O)C4=CCC[C@@]4(C)[C@]3(C)CC[C@@H]12` showed an IC50 of 9.58 µM.

For `CCC(=O)CC[C@]1(C)C(=O)[C@H](O)C[C@@H]2[C@@]3(C)CC[C@H](OC(C)=O)C(C)(C)[C@@H]3CC[C@]21C`, the IC50 is 6.26 µM.

The target of a further assay is T4, 11-beta-hydroxysteroid dehydrogenase 1 (Mus musculus, UniProt P50172). The assay can be described thus: Inhibition of mouse N-terminal His-tagged 11beta-HSD1 expressed in Escherichia coli using cortisol as substrate by fluorescence-based assay.
T4 sequence (P50172 whole entry): as the sequence (P50172 whole entry, looked up) above
Conditions: not given
For the compound `CC1=CC[C@@]2(CC1O)[C@@H](C(=O)O)CC[C@H]2C(C)C` (some centres undefined), the IC50 was 0.46 µM.

A further assay deals with T2, 11-beta-hydroxysteroid dehydrogenase 1. To be noted: HEK293, at 1 µM.
Target sequence in this assay (P28845 whole entry, looked up): as the sequence (P28845 whole entry) above
Description: Inhibition of full-length human 11beta-HSD1 expressed in HEK293 microsomal fraction at 1 uM using [3H]cortisone as substrate after 2 hr by scintillation proximity assay relative to control
Consider `CC(=O)O[C@H]1CC[C@]2(C)[C@H]3C[C@@H](O)[C@@H]4[C@@H](O)CC[C@@]4(C)[C@]3(C)CC[C@H]2C1(C)C`, for which the inhibition came to 51.6%.

The compound `CC1(C)[C@@H](O)CC[C@]2(C)[C@H]3CC(=O)C4=CCC[C@@]4(C)[C@]3(C)CC[C@@H]12` yielded an inhibition of 50.2%.

`CC(=O)O[C@H]1CC[C@]2(C)[C@H]3C[C@@H](OC(C)=O)[C@@H]4[C@@H](C(=O)CCCC(C)C)CC[C@@]4(C)[C@]3(C)CC[C@H]2C1(C)C`: the inhibition is 81.1%.

The compound `CCC(=O)CC[C@]1(C)C(=O)[C@H](O)C[C@@H]2[C@@]3(C)CC[C@H](OC(C)=O)C(C)(C)[C@@H]3CC[C@]21C` gave an inhibition of 54.3%.

Compound `CC(=O)O[C@H]1CC[C@]2(C)[C@H]3C[C@@H](OC(C)=O)[C@@H]4[C@@H](C(C)=O)CC[C@@]4(C)[C@]3(C)CC[C@H]2C1(C)C` yielded an inhibition of 69.4%.

Consider `CC(=O)O[C@H]1CC[C@]2(C)[C@H]3C[C@@H](OC(C)=O)[C@@H]4[C@@H](C(=O)CO)CC[C@@]4(C)[C@]3(C)CC[C@H]2C1(C)C`, for which the inhibition was 62.6%.

A further assay concerns the target 11-beta-hydroxysteroid dehydrogenase 1 (Mus musculus) (UniProt P50172). To be noted: at 1 µM.
Description: Inhibition of full-length mouse 11beta-HSD1 expressed in HEK293 microsomal fraction at 1 uM using [3H]cortisone as substrate after 1 hr by scintillation proximity assay relative to control
As to `COC(=O)[C@H]1CC[C@]2(C)[C@@H]1[C@H](O)C[C@@H]1[C@@]3(C)CC[C@H](O)C(C)(C)[C@@H]3CC[C@]12C`, the inhibition amounted to 7.69%.

Regarding `CC(=O)O[C@H]1CC[C@]2(C)[C@H]3C[C@@H](OC(C)=O)[C@@H]4[C@@H](C(=O)CF)CC[C@@]4(C)[C@]3(C)CC[C@H]2C1(C)C`, the inhibition was 11.9%.

In turn, `CC1(C)C=CC[C@]2(C)[C@H]3C[C@@H](O)[C@@H]4[C@@H](O)CC[C@@]4(C)[C@]3(C)CC[C@@H]12` registered an inhibition of 40.9%.

In the case of `CC(=O)O[C@H]1CC[C@]2(C)[C@H]3C[C@@H](O)[C@@H]4[C@@H](O)CC[C@@]4(C)[C@]3(C)CC[C@H]2C1(C)C`, the inhibition turned out to be 79%.

On to `CC1(C)[C@@H](O)CC[C@]2(C)[C@H]3C[C@@H](O)[C@@H]4[C@@H](C(=O)O)CC[C@@]4(C)[C@]3(C)CC[C@@H]12`, for which the inhibition amounted to 15.1%.

`CC1(C)[C@@H](O)CC[C@]2(C)[C@H]3C[C@@H](O)[C@@H]4[C@@H](Cl)CC[C@@]4(C)[C@]3(C)CC[C@@H]12` showed an inhibition of 35.8%.

The compound `CC(=O)O[C@H]1CC[C@]2(C)[C@H]3C[C@@H](OC(C)=O)C4=CCC[C@@]4(C)[C@]3(C)CC[C@H]2C1(C)C` gave an inhibition of 15.4%.

Compound `COCO[C@H]1CC[C@]2(C)[C@H]3C[C@@H](OCOC)[C@@H]4[C@@H](C(C)=O)CC[C@@]4(C)[C@]3(C)CC[C@H]2C1(C)C` showed an inhibition of 11.5%.

In turn, `CC1(C)[C@@H](O)CC[C@]2(C)[C@H]3C[C@@H](O)[C@@H]4CCC[C@@]4(C)[C@]3(C)CC[C@@H]12` had an inhibition of 58.4%.

In the case of `CC1(C)[C@@H](O)CC[C@]2(C)[C@H]3CC(=O)C4=CCC[C@@]4(C)[C@]3(C)CC[C@@H]12`, the inhibition worked out at 47.4%.

In turn, `CC(=O)O[C@H]1CC[C@]2(C)[C@H]3C[C@@H](OC(C)=O)[C@@H]4[C@@H](C(=O)CCCC(C)C)CC[C@@]4(C)[C@]3(C)CC[C@H]2C1(C)C` had an inhibition of 10.8%.

As for `CC(=O)[C@]1(O)CC[C@]2(C)[C@@H]1[C@H](O)C[C@@H]1[C@@]3(C)CC[C@H](O)C(C)(C)[C@@H]3CC[C@]12C`, the inhibition turned out to be 65.7%.

`CCC(=O)CC[C@]1(C)C(=O)[C@H](O)C[C@@H]2[C@@]3(C)CC[C@H](OC(C)=O)C(C)(C)[C@@H]3CC[C@]21C` yielded an inhibition of 11.5%.

For the compound `CC(=O)O[C@H]1CC[C@]2(C)[C@H]3C[C@@H](OC(C)=O)[C@@H]4[C@@H](C(C)=O)CC[C@@]4(C)[C@]3(C)CC[C@H]2C1(C)C`, the inhibition was 40.9%.

Turning to `CC(=O)O[C@H]1CC[C@]2(C)[C@H]3C[C@@H](OC(C)=O)[C@@H]4[C@@H](C(=O)CO)CC[C@@]4(C)[C@]3(C)CC[C@H]2C1(C)C`, the inhibition was found to be 20.1%.

With `CC(=O)O[C@H]1CC[C@]2(C)[C@H]3C[C@@H](O)[C@@H]4[C@@H](C(C)=O)CC[C@@]4(C)[C@]3(C)CC[C@H]2C1(C)C`, the inhibition was 60.9%.

Regarding `CC1(C)[C@@H](O)CC[C@]2(C)[C@H]3C[C@@H](O)[C@@H]4[C@@H](CO)CC[C@@]4(C)[C@]3(C)CC[C@@H]12`, the inhibition amounted to 57.9%.

The next assay concerns the target T4, 11-beta-hydroxysteroid dehydrogenase 1. The assay can be described thus: Inhibition of full-length mouse 11beta-HSD1 expressed in HEK293 microsomal fraction […] after 1 hr by scintillation proximity assay.
Conditions: not given
`CC(=O)O[C@H]1CC[C@]2(C)[C@H]3C[C@@H](O)[C@@H]4[C@@H](O)CC[C@@]4(C)[C@]3(C)CC[C@H]2C1(C)C` came in with an IC50 of 0.213 µM.

In the case of `CC1(C)[C@@H](O)CC[C@]2(C)[C@H]3C[C@@H](O)[C@@H]4CCC[C@@]4(C)[C@]3(C)CC[C@@H]12`, the IC50 is 0.592 µM.

Compound `CC(=O)[C@]1(O)CC[C@]2(C)[C@@H]1[C@H](O)C[C@@H]1[C@@]3(C)CC[C@H](O)C(C)(C)[C@@H]3CC[C@]12C` gave an IC50 of 0.601 µM.

`CC(=O)O[C@H]1CC[C@]2(C)[C@H]3C[C@@H](O)[C@@H]4[C@@H](C(C)=O)CC[C@@]4(C)[C@]3(C)CC[C@H]2C1(C)C` displayed an IC50 of 0.454 µM.

For the compound `CC1(C)[C@@H](O)CC[C@]2(C)[C@H]3C[C@@H](O)[C@@H]4[C@@H](CO)CC[C@@]4(C)[C@]3(C)CC[C@@H]12`, the IC50 was 0.476 µM.

The term IC50 denotes the midpoint of a concentration-inhibition curve. Read a low IC50 as higher potency. As usually defined, the inhibition is the change of the read-out against control, counted positive when it falls. High values mean strong suppression, low ones little suppression.

Source of the values: ChEMBL document CHEMBL4052631, “Synthesis of selective 11β-HSD1 inhibitors based on dammarane scaffold” (Eur J Med Chem, 2017).
